Reference: patent publication US10426785B2, “C-19 steroids for inhibiting neovascularization” (priority 2014, dated 2019)

Legend:
Format in all cases: cell-based, human
HUVEC cells [1] = assay: WST-1 proliferation assay of HUVEC cells; details: 1, 2 and 5 μM; all 3 HUVEC cell cultures; p<0.001 (t-test); FIG. 1A
Procedure: All experiments were additionally run in several replicates (one HUVEC in different passages as well as different preparations.
For determining the proliferation rates, WST-1 tests were performed. Essentially, 1000 HUVEC cells/well were seeded in a 96-well plate and exposed to the indicated concentrations of 4-OHT (also denoted by lab code CR 1447) for 5 days. Inhibition of proliferation was quantified by measuring the enzymatic cleavage of the tetrazolium salt WST-1 to formazan by cellular mitochondrial dehydrogenases as a readout for cell viability, wherein cell viability of treated cells is expressed as the percentage (%) of untreated controls containing only the solvent in appropriate concentrations.
Cells were grown and subcultured in Endothelial Cell Growth medium (EGM) for 3 and 5 days, respectively.

HUVEC cells [2] = assay: Transwell migration assay of HUVEC cells with VEGF as attractant; details: 48 hrs, VEGF as attractant in lower chamber, compared to control, FIG. 2B
Procedure: (§1) Briefly, human umbilical vein endothelial cells (in the following HUVEC) were freshly isolated out of human umbilical cords by methods known in the art and were used in the experiments from passage p4 up to passage p10 to prevent any artefacts originating from in vitro changes of the cells.
(§2) In all experiments, the C-19 steroid compound 4-OHT was added to the cells in the indicated concentration in EGM-2 medium (Lonza) in order to avoid any artefacts originating from exogenous factors contained in the medium.
A prerequisite of angiogenesis is the capability of endothelial cells to migrate into the tissue. This process is observed in wound healing and also in the process of tumor growth. Endothelial cells migrate into the tissue along a gradient of factors such as VEGF. This behavior can be studied in an in vitro model of migration using a transwell system, as e.g. apparent from FIG. 2A.
For studying the migration of HUVEC cells using the transwell system with PET-membranes having a 3 μm pore size (24-wells w/o fibronectin-coating), HUVEC cells in different cell numbers were placed in the upper compartment, whereas the attractant was placed in the lower compartment. The number of cells on the attractant site of the membrane was compared with the number of cells visible in a control system (buffer control) and with the attractant (VEGF) in the presence of 4-OHT. […]

HUVEC cells [3] = assay: Wound healing (scratch) assay of HUVEC cells; details: 10 μM, FIG. 3
Procedure: as §1, §2
Another method for studying cell migration is the wound healing (scratch) assay. This assay resembles the events occurring in an acute wound healing process. By release of factors from the wound area endothelial cells migrate into the scratch area, which shall resemble the process of healing and closure of the wound by vascularization and later scar formation.
In summary, HUVEC cells were seeded in a 12-well plate and allow to grow until reaching confluency. Subsequently, a scratch was set, thereby removing the cells within the scratch area. The cells were exposed to 10 μM of 4-OHT and the migration of endothelial cells into the scratch area was monitored microscopically using a schedule from 2 up to 48 hrs, depending on the individual experimental design. […]

HUVEC cells [4] = assay: Tube migration (tube formation) assay of HUVEC cells on matrigel; details: HUVEC on matrigel (7 mg/ml), 10 μM/L, FIG. 4
Procedure: as §1, §2
After migration into the tissue of a scratch, HUVEC cells change their growth characteristics and form microvessels. This effect can be assessed microscopically.
HUVEC cells were seeded on matrigel (7 mg/ml). Cell suspensions as well as gels containing 10 μM/L 4-OHT were added upon seeding, It was allowed to form branching points during adherence onto this surface mimicking basal membrane character. Tube formation was analyzed microscopically after 12 and 48 hours.
When the human endothelial cells were subjected onto matrigel pads, branching points as one marker of tube formation are inhibited by 4-OHT as compared to untreated controls (red arrows).

Question: Which results are given for `C[C@]12CC[C@H]3[C@@H](CCC4=C(O)C(=O)CC[C@@]43C)[C@@H]1CC[C@@H]2O` [4-OHT, 4-hydroxytestosterone]?
Answer: growth inhibition (WST-1 cell viability vs untreated controls) (HUVEC cells [1]): highly significant; migration of cells into the membrane (transwell) (HUVEC cells [2]): significantly inhibits; migration of HUVEC cells into the scratch area compared to untreated control cells (HUVEC cells [3]; after 24 h): clear reduction; endothelial cell migration (wound-healing / scratch assay) (HUVEC cells [3]; monitored 2 up to 48 hrs): effectively inhibited; tube formation of human endothelial cells (HUVEC cells [4]; analyzed after 12 and 48 hours): significantly inhibited; branching of the cells (branching points as marker of tube formation) (HUVEC cells [4]; compared to untreated controls): markedly inhibited
